The values that follow come from patent publication EP0683169A1, “8-Amino-pyrido 1,2,3-de 1,3,4 benzoxadiazine derivatives, and antibacterial agents containing them” (BAYER AG, priority 1994, dated 1995).

Test in all cases: MIC (MHK) by agar serial dilution on Iso-Sensitest agar
Assay type in all cases: cell-based

Assay [1] has as its system Acinetobacter 14068. The note with it: strain 14068, ca. 10⁴ colony-forming particles per spot, 37°C, ca. 20 h, read-out: MHK-Werte. An excerpt: (§1) Die minimalen Hemmkonzentrationen (MHK) der erfindungsgemäßen Verbindungen wurden per Reihenverdünnungsverfahren auf Iso-Sensitest Agar (Oxoid) bestimmt. Für jede Prüfsubstanz wurde eine Reihe von Agarplatten hergestellt, die bei jeweils doppelter Verdünnung abfallende Konzentrationen des Wirkstoffs enthielten. Die Agarplatten wurden mit einem Multipoint-Inokulator (Denley) beimpft. Zum Beimpfen wurden Übernachtkulturen der Erreger verwandt, die zuvor so verdünnt wurden, daß jeder Impfpunkt ca. 10⁴ koloniebildende Partikel enthielt. Die beimpften Agarplatten wurden bei 37°C bebrütet, und das Keimwachstum wurde nach ca. 20 Stunden abgelesen. Der MHK-Wert (µg/ml) gibt die niedrigste Wirkstoffkonzentration an, bei der mit bloßem Auge kein Wachstum zu erkennen war.
(§2) In der nachstehenden Tabelle sind die MHK-Werte einiger der erfindungsgemäßen Verbindungen aufgeführt. Tabelle

In assay [2] the test system is E. coli ATCC 25922. The settings on record: Escherichia coli, ATCC25922, strain ATCC 25922, ca. 10⁴ colony-forming particles per spot, 37°C, ca. 20 h, read-out: MHK-Werte.
Excerpt: as §1, §2

In assay [3] the test system is E. coli Neumann. The settings on record: Escherichia coli, strain Neumann, ca. 10⁴ colony-forming particles per spot, 37°C, ca. 20 h, read-out: MHK-Werte.
Excerpt: as §1, §2

For assay [4], the system named is Klebsiella pneumoniae 8085. The note with it: strain 8085, ca. 10⁴ colony-forming particles per spot, 37°C, ca. 20 h, read-out: MHK-Werte.
Excerpt: as §1, §2

The test system of assay [5] is Micrococcus luteus 9341. The settings on record: strain 9341, ca. 10⁴ colony-forming particles per spot, 37°C, ca. 20 h, read-out: MHK-Werte.
Excerpt: as §1, §2

≈ marks a conversion by molar mass, not a printed value.

As to `CN1CCN(c2c(F)c(N)c3c(=O)c(C(=O)O)cn4c3c2OCN4C)CC1` [Beispiel 2, 8-Amino-9-fluor-3-methyl-10-(4-methyl-1-piperazinyl)-7-oxo-2,3-dihydro-7H-pyrido[1,2,3-d,e][1,3,4]benzoxadiazin-6-carbonsäure], the MIC in assay [1] came out at 0.015 µg/mL (≈ 0.0397 µM); in assay [2], 0.015 µg/mL (≈ 0.0397 µM); in assay [3], 0.015 µg/mL (≈ 0.0397 µM); in assay [4], 0.06 µg/mL (≈ 0.159 µM); in assay [5], 0.015 µg/mL (≈ 0.0397 µM).

As for `CC1CN(c2c(F)c(N)c3c(=O)c(C(=O)O)cn4c3c2OCN4C)CCN1` (centres unmarked) [Beispiel 3, 8-Amino-9-fluor-3-methyl-10-(3-methyl-1-piperazinyl)-7-oxo-2,3-dihydro-7H-pyrido[1,2,3-d,e][1,3,4]benzoxadiazin-6-carbonsäure], the MIC stood at 0.015 µg/mL (≈ 0.0397 µM) in assay [1]; 0.06 µg/mL (≈ 0.159 µM) in assay [2]; 0.06 µg/mL (≈ 0.159 µM) in assay [3]; 0.12 µg/mL (≈ 0.318 µM) in assay [4]; 0.015 µg/mL (≈ 0.0397 µM) in assay [5].

As for `CN1COc2c(N3CCC(O)C3)c(F)c(N)c3c(=O)c(C(=O)O)cn1c23` (centres unmarked) [Beispiel 5, 8-Amino-9-fluor-3-methyl-10-(3-hydroxy-1-pyrrolidinyl)-7-oxo-2,3-dihydro-7H-pyrido[1,2,3-d,e][1,3,4]benzoxadiazin-6-carbonsäure], the MIC in assay [1] stood at 0.015 µg/mL (≈ 0.0412 µM); in assay [2], 0.03 µg/mL (≈ 0.0823 µM); in assay [3], 0.015 µg/mL (≈ 0.0412 µM); in assay [4] it was 0.25 µg/mL (≈ 0.686 µM); in assay [5], 0.015 µg/mL (≈ 0.0412 µM).

Regarding `CN1C[C@@H]2C[C@H]1CN2c1c(F)c(N)c2c(=O)c(C(=O)O)cn3c2c1OCN3C` [Beispiel 10], the MIC was 0.015 µg/mL (≈ 0.0385 µM) in assay [1]; 0.06 µg/mL (≈ 0.154 µM) in assay [2]; 0.06 µg/mL (≈ 0.154 µM) in assay [3]; 0.12 µg/mL (≈ 0.308 µM) in assay [4]; 0.015 µg/mL (≈ 0.0385 µM) in assay [5].
